Laboratory results reported in US10987389B2, “Anti-tumor traditional Chinese medicine microbial fermentation preparation and a preparation method and application thereof” (priority 2014, dated 2021).
Where “and” joins values, the source holds several entries; their conditions need not be identical. Identical values can stand only once.

Key:
Type in all cases: in vivo
[1] = test system: mouse transplantable Heps solid tumor; assay: Effects of oral administration of the compound powder on mouse Heps solid tumor; details: for Inhibition rate / Tumor weight (g) (X ± SD): mouse Heps solid tumor; for Weight (g) Beginning: body weight at beginning; for Weight (g) Beginning / Weight (g) End: Heps; for Weight (g) End: body weight at end
Method: (§1) A suspension of 10% was prepared from the traditional Chinese medicine compound powder provided by the present invention and then stored in a refrigerator. The suspension would be shaken up before use. Tumor strain: Heps, S180 and ESC were all commercially available products. Animal: Kunming mice provided by the animal laboratories of Shenyang Pharmaceutical University and China Pharmaceutical University. Method: referring to the following literatures: Literature 1: chief editor Xu Shuyun. Methodology of Pharmacological Experiment, Beijing: People's Medical Publishing House 1982, 1115-1125. Literature 2: China Academic Conference on Tumor Pharmacology and Chemotherapy: In-vivo Efficacy Test Procedures of Anticancer Drugs, internal data. 1989. 1. Effects of the Traditional Chinese Medicine Compound Powder on Heps Solid Tumor […]

[2] = test system: mouse Ehrlich Ascites Cancer (EAC) solid tumor; assay: Effects of oral administration of the compound powder on mouse Ehrlich Ascites Cancer (EAC) solid tumor; details: Dosage 0.2 ml/10 g × 9
Method: as §1, with “1989. 3.” for “1989. 1.”, “on ESC” for “on Heps”

[3] = test system: mouse transplantable S180 solid tumor; assay: Effects of oral administration of the compound powder on mouse S180 solid tumor; details: Dosage 0.2 ml/10 g × 9
Method: as §1, with “1989. 2.” for “1989. 1.”, “on S180” for “on Heps”

O=c1[nH]cc(F)c(=O)[nH]1 [0.15% 5-Fu, 5-Fu]
Inhibition rate ([1]; Dosage 0.1 ml/10 g × 8): 65.75% and 56.62%
Tumor weight (g) (X ± SD) ([1]; Dosage 0.1 ml/10 g × 8): 1.12 ± 0.85 g and 0.59 ± 0.27 g
Inhibition rate ([1]; Dosage 0.1 ml/10 g × 9): 58.55%
Tumor weight (g) (X ± SD) ([1]; Dosage 0.1 ml/10 g × 9): 1.05 ± 0.54 g
Weight (g) Beginning ([1]; Dosage 0.1 ml/10 g × 8): 21.30 g and 18.95 g
Weight (g) Beginning ([1]; Dosage 0.1 ml/10 g × 9): 21.00 g
Weight (g) End ([1]; Dosage 0.1 ml/10 g × 8): 24.80 g and 20.22 g
Weight (g) End ([1]; Dosage 0.1 ml/10 g × 9): 25.86 g
Inhibition rate ([2]; mouse EAC solid tumor): 64.85% and 66.85% and 65.36%
Tumor weight (g) (X ± SD) ([2]; mouse EAC solid tumor): 1.23 ± 0.43 g and 1.31 ± 0.65 g and 1.33 ± 0.63 g
Weight (g) Beginning ([2]; body weight at beginning, EAC): 20.90 g and 21.45 g and 20.85 g
Weight (g) End ([2]; body weight at end, EAC): 26.80 g and 22.20 g and 26.90 g
Inhibition rate ([3]; mouse S180 solid tumor): 61.80% and 60.53% and 42.62%
Tumor weight (g) (X ± SD) ([3]; mouse S180 solid tumor): 1.36 ± 0.44 g and 1.33 ± 0.31 g and 1.87 ± 1.03 g
Weight (g) Beginning ([3]; body weight at beginning, S180): 21.80 g and 21.30 g and 20.78 g
Weight (g) End ([3]; body weight at end, S180): 24.70 g and 23.60 g and 20.00 g
